From PubChem BioAssay (NCI)
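GI50 = concentration required for 50% inhibition of growth. TGI denotes the concentration required for complete inhibition of growth.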

Experiments:
Assay in all cases: growth of human tumour cells (NCI), 384-well format
[1] = tested on: OVCAR-4 ovarian
[2] = tested on: DU-145 prostate
[3] = tested on: NCI/ADR-RES ovarian
[4] = tested on: A549 NSCLC
[5] = tested on: SN12C renal
[6] = tested on: HOP-92 NSCLC
[7] = tested on: RXF 393 renal
[8] = tested on: SK-MEL-28 melanoma
[9] = tested on: HS 578T breast
[10] = tested on: MOLT-4 leukemia
[11] = tested on: HCT-116 colon
[12] = tested on: NCI-H23 lung
[13] = tested on: MDA-MB-468 breast
[14] = tested on: COLO 205 colon
[15] = tested on: HT29 colon
[16] = tested on: KM12 colon
[17] = tested on: SK-MEL-5 melanoma
[18] = tested on: NCI-H460 NSCLC
[19] = tested on: SF-539 CNS
[20] = tested on: CAKI-1 renal
[21] = tested on: UACC-257 melanoma
[22] = tested on: NCI-H322M lung
[23] = tested on: TK-10 renal
[24] = tested on: CCRF-CEM leukemia
[25] = tested on: SR leukemia
[26] = tested on: OVCAR-3 ovarian
[27] = tested on: MCF7 breast
[28] = tested on: HCT-15 colon
[29] = tested on: EKVX NSCLC
[30] = tested on: UO-31 renal
[31] = tested on: HCC-2998 colon
[32] = tested on: OVCAR-8 ovarian
[33] = tested on: IGROV1 ovarian
[34] = tested on: U251 glioblastoma
[35] = tested on: T-47D breast
[36] = tested on: HOP-62 NSCLC
[37] = tested on: MDA-MB-435 melanoma
[38] = tested on: UACC-62 melanoma
[39] = tested on: 786-0 renal
[40] = tested on: PC-3 prostate
[41] = tested on: OVCAR-5 ovarian
[42] = tested on: SK-OV-3 ovarian
[43] = tested on: BT-549 breast
[44] = tested on: K-562 leukemia
[45] = tested on: NCI-H522 lung
[46] = tested on: MALME-3M melanoma
[47] = tested on: SNB-75 CNS
[48] = tested on: SF-295 CNS
[49] = tested on: LOX IMVI melanoma
[50] = tested on: M14 melanoma
[51] = tested on: NCI-H226 lung
[52] = tested on: MDA-MB-231 breast
[53] = tested on: A498 renal
[54] = tested on: HL-60(TB) leukemia
[55] = tested on: SF-268 CNS
[56] = tested on: SW-620 colon
[57] = tested on: SNB-19 CNS
[58] = tested on: ACHN renal
[59] = tested on: RPMI-8226 leukemia
[60] = tested on: SK-MEL-2 melanoma

CC(C)(C)C[C@H]1N[C@@H](C(=O)NC2CCC(O)CC2)[C@H](c2cccc(Cl)c2F)[C@@]12C(=O)Nc1cc(Cl)ccc12 (stereo not given in full)
GI50 [1]: 7.25 µM | TGI [1]: 20.3 µM | GI50 [2]: 13 µM | TGI [2]: 25.8 µM | GI50 [3]: 17.5 µM | TGI [3]: 31.4 µM | GI50 [4]: 0.5 µM | TGI [4]: 11.9 µM | GI50 [5]: 14 µM | TGI [5]: 27.2 µM | GI50 [6]: 8.42 µM | TGI [6]: 21.4 µM | GI50 [7]: 2.38 µM | TGI [7]: 8.18 µM | GI50 [8]: 7.87 µM | TGI [8]: 20.5 µM | GI50 [9]: 3.21 µM | TGI [9]: 11.9 µM | GI50 [10]: 0.0487 µM | TGI [10]: 0.152 µM | GI50 [11]: 0.304 µM | TGI [11]: 11.7 µM | GI50 [12]: 10 µM | TGI [12]: 22.5 µM | GI50 [13]: 2.27 µM | TGI [13]: 9.06 µM | GI50 [14]: 11.7 µM | TGI [14]: 24.1 µM | GI50 [15]: 3.65 µM | TGI [15]: 13.4 µM | GI50 [16]: 2.15 µM | TGI [16]: 16.2 µM | GI50 [17]: 2.57 µM | TGI [17]: 13.1 µM | GI50 [18]: 1.71 µM | TGI [18]: 14.9 µM | GI50 [19]: 8.76 µM | TGI [19]: 22.3 µM | GI50 [20]: 0.195 µM | TGI [20]: 10.8 µM | GI50 [21]: 0.556 µM | TGI [21]: 2.4 µM | GI50 [22]: 17.2 µM | TGI [22]: 31.1 µM | GI50 [23]: 8.04 µM | TGI [23]: 20.8 µM | GI50 [24]: 3.25 µM | TGI [24]: 10.6 µM | GI50 [25]: 0.0271 µM | TGI [25]: 0.0996 µM | GI50 [26]: 6.74 µM | TGI [26]: 19.2 µM | GI50 [27]: 0.318 µM | TGI [27]: 7.21 µM | GI50 [28]: 10.7 µM | TGI [28]: 22.9 µM | GI50 [29]: 8.97 µM | TGI [29]: 21.5 µM | GI50 [30]: 0.461 µM | TGI [30]: 2.52 µM | GI50 [31]: 9.2 µM | TGI [31]: 21.3 µM | GI50 [32]: 12.5 µM | TGI [32]: 25.1 µM | GI50 [33]: 6.09 µM | TGI [33]: 20.4 µM | GI50 [34]: 12.2 µM | TGI [34]: 24.7 µM | GI50 [35]: 8.29 µM | TGI [35]: 20.8 µM | GI50 [36]: 14.7 µM | TGI [36]: 28 µM | GI50 [37]: 10.2 µM | TGI [37]: 23 µM | GI50 [38]: 0.1 µM | TGI [38]: 1.86 µM | GI50 [39]: 8.2 µM | TGI [39]: 21.1 µM | GI50 [40]: 7.04 µM | TGI [40]: 18.7 µM | GI50 [41]: 13.6 µM | TGI [41]: 26.5 µM | GI50 [42]: 14.6 µM | TGI [42]: 27.9 µM | GI50 [43]: 10.1 µM | TGI [43]: 23.2 µM | GI50 [44]: 4.1 µM | TGI [44]: 13.6 µM | GI50 [45]: 3.32 µM | TGI [45]: 10.1 µM | GI50 [46]: 0.229 µM | TGI [46]: 5.03 µM | GI50 [47]: 6.62 µM | TGI [47]: 19.2 µM | GI50 [48]: 7.09 µM | TGI [48]: 19.8 µM | GI50 [49]: 0.366 µM | TGI [49]: 15.8 µM | GI50 [50]: 5.59 µM | TGI [50]: 20.3 µM | GI50 [51]: 0.226 µM | TGI [51]: 1.1 µM | GI50 [52]: 9.89 µM | TGI [52]: 22.3 µM | GI50 [53]: 0.211 µM | TGI [53]: 3.41 µM | GI50 [54]: 2.21 µM | TGI [54]: 4.44 µM | GI50 [55]: 13.6 µM | TGI [55]: 26.5 µM | GI50 [56]: 14.7 µM | TGI [56]: 28 µM | GI50 [57]: 14.1 µM | TGI [57]: 27.2 µM | GI50 [58]: 0.218 µM | TGI [58]: 2.53 µM | GI50 [59]: 2.35 µM | TGI [59]: 4.06 µM | GI50 [60]: 4.41 µM | TGI [60]: 14.6 µM
